Results on 2 molecules are retold here after US10493118B2, “Triterpenoid obtainable from hedera helix for treatment of neurodegenerative diseases” (Macau University of Science and Technology, priority 2016, dated 2019).

Structures are written as SMILES.

Data set [1] concerns GFP-LC3 transfected Atg7+/+ and Atg7−/− MEFs. Nature of the data set: GFP-LC3 puncta formation in ATG7 wild-type and ATG7 deficient MEFs. The data set is classed as cell-based, mouse. To be noted: α-hederin 12 or 24 μM, hederagenin 40, 60 or 80 μM, 24 h. Here is the method: Immunocytochemistry and fluorescence microscopy: In brief, GFP-LC3 puncta formation was analyzed as described previously (Wu, A. G. et al. Int J Mol Sci 2013, 14:22618-22641). Firstly, cells were plated on top of coverslips inside a 6-well culture dish. After compounds treatments, cells were fixed with 4% paraformaldehyde for 20 min. FluorSave™ mounting media (Calbiochem, San Diego, Calif., USA) was used to mount the coverslips with cells before subjected to fluorescence microscopic analysis. The number of GFP-positive cells, and cells with GFP-LC3 puncta formation was examined and counted under the Nikon ECLIPSE 80i microscope by using 40× of magnification. In order to standardize the quantitation, the percentage of cells with autophagy induction was defined by counting the number of cells with punctate GFP-LC3 fluorescence in GFP-positive cells. A minimum of 1000 GFP-positive cells from 3 randomly selected fields were scored.

Data set [2] in a line: UHPLC/MS/MS measurement of hederagenin and α-hederin level in mice brain tissues. It is filed as in vivo. The procedure:
Whole mice brains were collected and weighted after sacrificed. Each brain tissue was put into 500 μl of NaCl solution and ultra-sonicated for 40 s to give the whole tissue homogenate. Each tube of homogenate was set to a final volume of 800 μl. […] The supernatant was collected and remaining precipitate was re-extracted with 200 μl of methanol. The collected supernatant was then combined and dried by using dry nitrogen blowing instrument. The residue was reconstituted with 200 μl of 30% acetonitrile, and then 10 μl of the aliquot was injected into the LC-MS/MS system (Su, F. L. et al., Chromatographia 2009, 69:207-213). […] The measurement of dopamine (DA), hederagenin and α-hederin level in mice brain tissues: Internal standard (IS, DHBA), DA, hederagenin and α-hederin level in the mouse brain, were quantified using UHPLC/MS/MS system which includes Agilent 1290 Infinity UHPLC, and Agilent 6460 Triple Quadrupole, equipped with an electrospray ionization interface used to generate positive ions for the determination of DA; negative ion mode for the measurement of hederagenin and α-hederin in mouse brains. The compounds in plasma samples were analyzed by using the Agilent Zorbax Eclipse Plus C-18 column with a particle size of 1.8 μm (flow rate: 0.35 mL/min). […] Data were analyzed by using Agilent MassHunter Workstation software B.01.03. […]

In data set [3] the test system is EGFP-HTT 74 (mutant huntingtin). Nature of the data set: Mutant huntingtin (EGFP-HTT 74) clearance in transfected PC-12 cells, Western blot. The data set is classed as cell-based. To be noted: EGFP-HTT 74 transfected PC-12 cells; hederagenin 40-80 μM, α-hederin 12-24 μM. An excerpt:
Protein extraction and Western blots: Cells were harvested by RIPA lysis buffer (Cell Signaling Technologies, Beverly, Mass., USA), and with the final protein concentrations measured by using Bradford reagent (Bio-Rad, Hercules, Calif., USA). After electrophoresis for protein band separation, proteins were transferred to the nitrocellulose membrane which was blocked with 5% non-fat dried milk immediately after protein transfer. Corresponding primary antibodies, followed by the addition of HRP-conjugated secondary antibodies, were incubated with the protein membrane with constant shaking. […] Band intensities were quantified by using the software, ImageJ (ImageJ 1.46r; National Institutes of Health, Bethesda, Md., USA).
Cells were then treated with either hederagenin or α-hederin for a further 24 h to determine the protein level of mutant huntingtin by Western blot analysis using an antibody against GFP (Ravikumar, B. et al., Nat Genet 2004, 36:585-595). On the other hand, ATG7 wild-type and ATG7-deficient MEF cells transfected with EGFP-HTT 74 were analyzed for the formation of huntingtin inclusion after 24 h of hederagenin or α-hederin treatment. Percentages of cells with cytoplasmic GFP-huntingtin (GFP-HTT74) inclusion formation were counted by the number of cells with GFP inclusions over the total number of GFP-positive cells in the same field under fluorescent microscopic analysis. […]
For orientation: A western blot detects proteins with antibodies after separation by electrophoresis.

Data set [4] relates to myc-tagged-A53T-α-syn. The data set is classed as cell-based. Conditions: PC-12 cells after 1 μg/ml Dox induction; hederagenin 40 or 60 μM, α-hederin 12 or 24 μM. An excerpt:
Protein extraction and Western blots: Cells were harvested by RIPA lysis buffer (Cell Signaling Technologies, Beverly, Mass., USA), and with the final protein concentrations measured by using Bradford reagent (Bio-Rad, Hercules, Calif., USA). After electrophoresis for protein band separation, proteins were transferred to the nitrocellulose membrane which was blocked with 5% non-fat dried milk immediately after protein transfer. Corresponding primary antibodies, followed by the addition of HRP-conjugated secondary antibodies, were incubated with the protein membrane with constant shaking. Visualization of protein band pattern was performed by using the ECL Western Blotting Detection Reagents (Invitrogen, Paisley, Scotland). Band intensities were quantified by using the software, ImageJ (ImageJ 1.46r; National Institutes of Health, Bethesda, Md., USA).

The subject of data set [5] is LC3-II. Description: Western blot of LC3 conversion (LC3-II) in PC-12 cells. It is filed as cell-based. To be noted: for protein level of LC3-II with AMPK inhibitor compound C (CC): 60 μM hederagenin or 18 μM α-hederin with 5 μM CC; for protein level of LC3-II with addition of 3-MA: 60 μM hederagenin or 18 μM α-hederin with 5 mM 3-MA; for rate of LC3-II formation with lysosomal protease inhibitors (autophagic flux): 60 μM hederagenin or 18 μM α-hederin with E64d and pepstatin A (10 μg/mL), compared with compounds alone; for protein level of LC3-II: PC-12 cells, various durations and concentrations.

Consider `CC1(C)CC[C@]2(C(=O)O)CC[C@]3(C)C(=CC[C@@H]4[C@@]5(C)CC[C@H](O)[C@@](C)(CO)[C@@H]5CC[C@]43C)[C@@H]2C1` [hederagenin], for which, in data set [1], the “GFP-LC3-II puncta formation in ATG7-wild type MEFs” value was “significantly increase the GFP-LC3-II puncta formation”. Moreover, in data set [2] (C57BL/6, mouse, in vivo, po, 80 mg/kg), the “level detected in the brain tissue” value amounted to 3.39 nM. The “clearance of overexpressed huntingtin in PC-12 cells” value in data set [3] was “facilitate the clearance of overexpressed huntingtin”. In data set [4], the “clearance of overexpressed mutant A53T α-syn” value is listed as “facilitate the clearance of the overexpressed mutant α-”. Also, in data set [5], the “protein level of LC3-II with AMPK inhibitor compound C (CC)” value was “significant reduction in protein level of LC3-II”; the “protein level of LC3-II with addition of 3-MA” value is on record as “decreased protein level of LC3-II”; the “rate of LC3-II formation with lysosomal protease inhibitors (autophagic flux)” value is “significantly increase the rate of LC3-II formation”; the “protein level of LC3-II” value was “increase in the protein level of LC3-II via a dose- and time-dependent manner”.
As for `C[C@@H]1O[C@@H](O[C@H]2[C@H](O[C@H]3CC[C@@]4(C)[C@@H](CC[C@]5(C)[C@@H]4CC=C4[C@@H]6CC(C)(C)CC[C@]6(C(=O)O)CC[C@]45C)[C@]3(C)CO)OC[C@H](O)[C@@H]2O)[C@H](O)[C@H](O)[C@H]1O` [α-hederin], in data set [1], the “GFP-LC3-II puncta formation in ATG7-wild type MEFs” value is given as “significantly increase the GFP-LC3-II puncta formation”. The “level detected in the brain tissue” value in data set [2] (mice with 80 mg/kg HH-EF′ treatment, oral) stood at 2.98 nM. In data set [3], the “clearance of overexpressed huntingtin in PC-12 cells” value is recorded as “facilitate the clearance of overexpressed huntingtin”. Also, the “clearance of overexpressed mutant A53T α-syn” value in data set [4] is reported as “facilitate the clearance of the overexpressed mutant α-”. Besides, in data set [5], the “protein level of LC3-II with AMPK inhibitor compound C (CC)” value is listed as “significant reduction in protein level of LC3-II”; the “protein level of LC3-II with addition of 3-MA” value was “decreased protein level of LC3-II”; the “rate of LC3-II formation with lysosomal protease inhibitors (autophagic flux)” value was “significantly increase the rate of LC3-II formation”; the “protein level of LC3-II” value is “increase in the protein level of LC3-II via a dose- and time-dependent manner”.
